Assay results reported in patent US6914045B2, “Glycopeptide antibiotics” (Wyeth Holdings Corporation, priority 2001, dated 2005).
Values after ≈ are worked out from the molar mass of the structure shown.

Legend:
Experiment in all cases: in vitro antibacterial evaluation, MIC by broth dilution
Format in all cases: cell-based
[1] = tested on: Escherichia coli; settings: 18 hours at 35° C.
Experimental: (§1) The minimum inhibitory concentration (MIC), the lowest concentration of the antibiotic which inhibits growth of the test organism, is determined by the broth dilution method using Muller-Hinton II […] (Baltimore Biological Laboratories) following the recommendations of the National Committee for Clinical Laboratory Standards [Methods for dilution antimicrobial susceptibility tests for bacteria that grow aerobically, approved standard M7-A2, National Committee for Clinical Laboratory Standards, Villanova, Pa.].
(§2) An inoculum level of 5×10^5 CFU/mL, and a range of antibiotic concentrations (64-0.06 μg/mL) is used. […] The test organisms include a spectrum of Gram-positive bacteria comprised of Staphylococcus sp., Streptococcus sp. and Enterococcus sp. These organisms include recent clinical isolates that are resistant to methicillin, penicillin and/or vancomycin.

[2] = tested on: Enterococcus sp.; settings: broth dilution, 18 hours at 35° C.
Experimental: (§3) Methods for in vitro Antibacterial Evaluation (Table 1)
as §1, §2

[3] = tested on: Staphylococcus sp.; settings: broth dilution, 18 hours at 35° C.; for MIC Staphylococcus aureus (ATCC 29213): strain ATCC 29213; for MIC Staphylococcus aureus (GC 1131): strain GC 1131; for MIC Staphylococcus aureus (GC 4535): strain GC 4535; for MIC Staphylococcus aureus-SMITH (GC 4536): strain GC 4536
Experimental: as §3, §1, §2

[4] = Enterococcus faecalis (ATCC 29212)
[5] = Enterococcus faecalis (GC 2242)
[6] = Enterococcus faecalis (GC 4552)

| SMILES | MIC Escherichia coli (GC 4559) [1] [µg/mL] | MIC Escherichia coli (GC 4560) [1] [µg/mL] | MIC Enterococcus faecalis (ATCC 29212) [2, 4] [µg/mL] | MIC Enterococcus faecalis (GC 2242) [2, 5] [µg/mL] | MIC Enterococcus faecalis (GC 4552) [2, 6] [µg/mL] | MIC Enterococcus faecalis (ATCC 29212) [2] [µg/mL] | MIC Enterococcus faecalis (GC 2242) [2] [µg/mL] | MIC Enterococcus faecalis (GC 4552) [2] [µg/mL] | MIC Coagulase Negative Staphylococcus (GC 4537) [3] [µg/mL] | MIC Coagulase Negative Staphylococcus (GC 4538) [3] [µg/mL] | MIC Coagulase Negative Staphylococcus (GC 4547) [3] [µg/mL] | MIC Coagulase Negative Staphylococcus (GC 4537) ([3]; strain GC 4537) [µg/mL] | MIC Coagulase Negative Staphylococcus (GC 4538) ([3]; strain GC 4538) [µg/mL] | MIC Coagulase Negative Staphylococcus (GC 4547) ([3]; strain GC 4547) [µg/mL] | MIC Staphylococcus aureus (ATCC 29213) [3] [µg/mL] | MIC Staphylococcus aureus (GC 1131) [3] [µg/mL] | MIC Staphylococcus aureus (GC 4535) [3] [µg/mL] | MIC Staphylococcus aureus-SMITH (GC 4536) [3] [µg/mL] |
| --- | --- | --- | --- | --- | --- | --- | --- | --- | --- | --- | --- | --- | --- | --- | --- | --- | --- | --- |
| CCCCCCC(=O)OCC1OC(Oc2ccc(CC3NC(=O)C(C(C)c4ccccc4)NC(=O)CNC(=O)C(CO)NC(=O)C(C(O)C4CNC(=N)N4C4OC(CO)C(O)C(O)C4O)NC(=O)C(C(O)C4CNC(=N)N4)NC3=O)cc2)C(O)C(O)C1OC1OC(CO)C(O)C(O)C1O (stereo not drawn) [Example 97a, Cyclo[glycyl-β-methylphenylalanyl-O-(6-O-heptanoyl-4-O-hexopyranosylhexopyranosyl)-tyrosyl-3-(2-iniinoimidazolidin-4-yl)seryl-3-(3-hexopyranosyl-2-iminoimidazolidin-4-yl)-serylseryl]] | >64 | 1 (≈ 0.711 µM) | 8 (≈ 5.68 µM) | 4 (≈ 2.84 µM) | 16 (≈ 11.4 µM) | 8 (≈ 5.68 µM) | 4 (≈ 2.84 µM) | 16 (≈ 11.4 µM) | 4 (≈ 2.84 µM) | 2 (≈ 1.42 µM) | 2 (≈ 1.42 µM) | 4 (≈ 2.84 µM) | 2 (≈ 1.42 µM) | 2 (≈ 1.42 µM) | 1 (≈ 0.711 µM) | 2 (≈ 1.42 µM) | 2 (≈ 1.42 µM) | 0.5 (≈ 0.355 µM) |
| CC(c1ccccc1)C1NC(=O)CNC(=O)C(CO)NC(=O)C(C(O)C2CNC(=N)N2C2OC(CO)C(O)C(O)C2O)NC(=O)C(C(O)C2CNC(=N)N2)NC(=O)C(Cc2ccc(OC3OC(CO)C(OC4OC(COC(=O)Cc5ccccc5)C(O)C(O)C4O)C(O)C3O)cc2)NC1=O (stereo not drawn) [Example 98c] | 64 (≈ 45.3 µM) | 0.5 (≈ 0.354 µM) | 16 (≈ 11.3 µM) | 8 (≈ 5.66 µM) | 16 (≈ 11.3 µM) | 16 (≈ 11.3 µM) | 8 (≈ 5.66 µM) | 16 (≈ 11.3 µM) | 2 (≈ 1.42 µM) | 1 (≈ 0.708 µM) | 1 (≈ 0.708 µM) | 2 (≈ 1.42 µM) | 1 (≈ 0.708 µM) | 1 (≈ 0.708 µM) | 2 (≈ 1.42 µM) | 2 (≈ 1.42 µM) | 4 (≈ 2.83 µM) | 2 (≈ 1.42 µM) |
